Tests used:
OATP2B1 (SLCO2B1) = system: OATP2B1 (SLCO2B1); set-up: method as in earlier work; conditions: in vitro; cited from earlier work
OATP1B1 (SLCO1B1) = system: OATP1B1 (SLCO1B1); set-up: method as in earlier work; conditions: in vitro; cited from earlier work
[1] = system: P-gp at the canalicular membrane; set-up: method as in PMID 12576431; conditions: humans; cited from earlier work
OATP1B3 (SLCO1B3) = system: OATP1B3 (SLCO1B3); set-up: method as in earlier work; conditions: in vitro; cited from earlier work
[2] = cited from earlier work
P-gp = conditions: mice, cited from earlier work
[3] = system: cytochrome P450 2D6 (CYP2D6); conditions: cited from earlier work
human P-gp = system: human P-gp; set-up: method as in PMID 17962372, PMID 15502009; conditions: cited from earlier work
rodent P-gp = system: rodent P-gp; set-up: method as in PMID 17962372, PMID 15502009; conditions: cited from earlier work
[4] = rat, iv
[5] = [11C]metoclopramide plasma kinetics and metabolism in rats (radio-HPLC); type: in vivo; conditions: rat
Source text: […]. […] […].

In the case of `COc1cc2c(cc1OC)CN(CCc1ccc(NC(=O)c3cc(OC)c(OC)cc3NC(=O)c3cnc4ccccc4c3)cc1)CC2` [tariquidar], the “inhibitor of OATP2B1” value (OATP2B1 (SLCO2B1)) is given as “inhibitor”, the “inhibitor of OATP1B1” value (OATP1B1 (SLCO1B1)) is given as “not” and the “effect on liver exposure to [99mTc]sestamibi” value [1] is given as “enhance”. The “inhibitor of OATP1B3” value (OATP1B3 (SLCO1B3)) was “not”.

In the case of `CCN(CC)CCNC(=O)c1cc(Cl)c(N)cc1OC` [metoclopramide], the “excreted unchanged in urine” value ([2]; after intravenous administration) is listed as 19%, the “lower plasma clearance in hepatic impairment (liver cirrhosis)” value ([2]; liver cirrhosis) is listed as 50% and the “influence of P-gp deficiency on metoclopramide PK” value (P-gp; 3 mg/kg, over 5 hours) is listed as “no influence”. The “effect of P-gp deficiency on brain distribution” value (P-gp) was “enhance”, the “impact of P-gp deficiency on plasma pharmacokinetics” value (P-gp) was “no or negligible impact” and the “substrate of CYP2D6” value [3] was “substrate”. For the same compound, the “substrate of human P-gp” value (human P-gp) was “substrate” and the “substrate of rodent P-gp” value (rodent P-gp) was “substrate”.

For `CCN(CC)CCNC(=O)c1cc(Cl)c(N)cc1O[11CH3]` [[^11C]metoclopramide], the “AUCliver (area under the time-activity curve of radioactivity in the liver, 0 to 30 min)” value ([4]; male, Wistar, in vivo, 3 mg/kg) was 42.9 ± 13.8 SUV·min, the “effect of P-gp inhibition on liver AUC” value ([4]; not told, 8 mg/kg) was “did not significantly impact” and the “increase in AUCplasma, pharmacologic dose vs tracer dose” value ([5]; in vivo) was 2.1 fold. The “proportion of parent [11C]metoclopramide in plasma, pharmacologic dose vs tracer dose” value ([5]; metoclopramide 3 mg/kg, calculated from ref 14) was “higher” and the “impact of P-gp inhibition on plasma clearance and metabolism” value ([5]; not told, 8 mg/kg) was “did not impact”.
